Reference: ChEMBL document CHEMBL1201862, “PubChem BioAssay data set” (2004)
Where “and” joins values, the source holds several entries; their conditions need not be identical. Equal entries are not always repeated.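 48-hour exposure; five concentrations; linearly interpolated endpoints. GI50 = concentration required for 50% inhibition of growth.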 Calls of active or inactive are those of the source. Cut-off read from the data, not from the text of the source: active = GI50 up to about 1.1 µM and inactive = higher. Peptide text beside a SMILES is read from it. * marks the point of attachment. Fmoc = O=C(OCC1c2ccccc2-c2ccccc21)*; Boc = CC(C)(C)OC(=O)*; OtBu = CC(C)(C)O*

Assays:
Assay in all cases: DTP human tumour cell line panel, 48 h
U-251 = system: U-251
SF-268 = system: SF-268
A549 = system: A549
NCI-H23 = system: NCI-H23
SR = system: SR
HT-29 = system: HT-29
BT-549 = system: BT-549
SK-MEL-5 = system: SK-MEL-5
HCT-116 = system: HCT-116
KM12 = system: KM12
EKVX = system: EKVX
SN12C = system: SN12C
IGROV-1 = system: IGROV-1
NCI-H460 = system: NCI-H460
RXF 393 = system: RXF 393
OVCAR-5 = system: OVCAR-5
SK-MEL-2 = system: SK-MEL-2
UACC-62 = system: UACC-62
NCI/ADR-RES = system: NCI/ADR-RES
OVCAR-3 = system: OVCAR-3
HOP-92 = system: HOP-92
UO-31 = system: UO-31
HL-60 = system: HL-60
HOP-62 = system: HOP-62
M14 = system: M14
SF-539 = system: SF-539
MOLT-4 = system: MOLT-4
UACC-257 = system: UACC-257
PC-3 = system: PC-3
Hs-578T = system: Hs-578T
OVCAR-8 = system: OVCAR-8
Malme-3M = system: Malme-3M
MCF7 = system: MCF7
RPMI-8226 = system: RPMI-8226
COLO 205 = system: COLO 205
SF-295 = system: SF-295
SNB-19 = system: SNB-19
HCT-15 = system: HCT-15
T47D = system: T47D
MDA-MB-231 = system: MDA-MB-231
NCI-H226 = system: NCI-H226
OVCAR-4 = system: OVCAR-4
MDA-N = system: MDA-N
A498 = system: A498
TK-10 = system: TK-10
DU-145 = system: DU-145
CAKI-1 = system: CAKI-1
ACHN = system: ACHN
SW-620 = system: SW-620
NCI-H522 = system: NCI-H522
LOX IMVI = system: LOX IMVI
SK-MEL-28 = system: SK-MEL-28
SK-OV-3 = system: SK-OV-3
786-0 = system: 786-0
K562 = system: K562
MDA-MB-435 = system: MDA-MB-435
SNB-75 = system: SNB-75
HCC 2998 = system: HCC 2998
CCRF-CEM = system: CCRF-CEM

Structure (SMILES): O=C(OCc1ccccc1)N1CCCc2c(n(S(=O)(=O)c3ccccc3)c3ccccc23)C1
- GI50 (U-251): > 100 µM (inactive)
- GI50 (SF-268): > 100 µM (inactive)
- GI50 (A549): > 100 µM (inactive)
- GI50 (NCI-H23): > 100 µM (inactive)
- GI50 (SR): 49.1 µM (inactive)
- GI50 (HT-29): > 100 µM (inactive)
- GI50 (BT-549): > 100 µM (inactive)
- GI50 (SK-MEL-5): > 100 µM (inactive)
- GI50 (HCT-116): > 100 µM (inactive)
- GI50 (KM12): > 100 µM (inactive)
- GI50 (EKVX): > 100 µM (inactive)
- GI50 (SN12C): > 100 µM (inactive)
- GI50 (IGROV-1): > 100 µM (inactive)
- GI50 (NCI-H460): > 100 µM (inactive)
- GI50 (RXF 393): 53.8 µM (inactive)
- GI50 (OVCAR-5): > 100 µM (inactive)
- GI50 (SK-MEL-2): > 100 µM (inactive)
- GI50 (UACC-62): > 100 µM (inactive)
- GI50 (NCI/ADR-RES): > 100 µM (inactive)
- GI50 (OVCAR-3): > 100 µM (inactive)
- GI50 (HOP-92): > 100 µM (inactive)
- GI50 (UO-31): > 100 µM (inactive)
- GI50 (HL-60): > 100 µM (inactive)
- GI50 (HOP-62): > 100 µM (inactive)
- GI50 (M14): > 100 µM (inactive)
- GI50 (SF-539): > 100 µM (inactive)
- GI50 (MOLT-4): > 100 µM (inactive)
- GI50 (UACC-257): > 100 µM (inactive)
- GI50 (PC-3): > 100 µM (inactive)
- GI50 (Hs-578T): 78.7 µM (inactive)
- GI50 (OVCAR-8): > 100 µM (inactive)
- GI50 (Malme-3M): 57.9 µM (inactive)
- GI50 (MCF7): > 100 µM (inactive)
- GI50 (RPMI-8226): > 100 µM (inactive)
- GI50 (COLO 205): > 100 µM (inactive)
- GI50 (SF-295): 36.6 µM (inactive)
- GI50 (SNB-19): > 100 µM (inactive)
- GI50 (HCT-15): > 100 µM
- GI50 (T47D): 14.2 µM (inactive)
- GI50 (MDA-MB-231): > 100 µM (inactive)
- GI50 (NCI-H226): > 100 µM (inactive)
- GI50 (OVCAR-4): > 100 µM (inactive)
- GI50 (MDA-N): > 100 µM (inactive)
- GI50 (A498): > 100 µM (inactive)
- GI50 (TK-10): > 100 µM (inactive)
- GI50 (DU-145): > 100 µM (inactive)
- GI50 (CAKI-1): > 100 µM (inactive)
- GI50 (ACHN): > 100 µM (inactive)
- GI50 (SW-620): > 100 µM (inactive)
- GI50 (NCI-H522): 29.1 µM (inactive)
- GI50 (LOX IMVI): > 100 µM (inactive)
- GI50 (SK-MEL-28): > 100 µM (inactive)
- GI50 (SK-OV-3): > 100 µM (inactive)
- GI50 (786-0): > 100 µM (inactive)
- GI50 (K562): > 100 µM (inactive)

Structure (SMILES): CN1CCN(c2ccc3c(c2)NCC(=O)N3)CC1
- GI50 (U-251): > 100 µM (inactive)
- GI50 (MDA-MB-435): > 100 µM (inactive)
- GI50 (SF-268): > 100 µM (inactive)
- GI50 (A549): > 100 µM (inactive)
- GI50 (NCI-H23): > 100 µM (inactive)
- GI50 (SNB-75): > 100 µM (inactive)
- GI50 (SR): > 100 µM (inactive)
- GI50 (HT-29): > 100 µM (inactive)
- GI50 (BT-549): > 100 µM (inactive)
- GI50 (SK-MEL-5): > 100 µM (inactive)
- GI50 (HCT-116): > 100 µM (inactive)
- GI50 (KM12): > 100 µM (inactive)
- GI50 (EKVX): 96.4 µM (inactive)
- GI50 (IGROV-1): > 100 µM (inactive)
- GI50 (NCI-H460): > 100 µM (inactive)
- GI50 (RXF 393): > 100 µM (inactive)
- GI50 (OVCAR-5): > 100 µM (inactive)
- GI50 (SK-MEL-2): > 100 µM (inactive)
- GI50 (UACC-62): > 100 µM (inactive)
- GI50 (NCI/ADR-RES): > 100 µM (inactive)
- GI50 (OVCAR-3): > 100 µM (inactive)
- GI50 (HOP-92): > 100 µM (inactive)
- GI50 (UO-31): > 100 µM (inactive)
- GI50 (HL-60): > 100 µM (inactive)
- GI50 (HOP-62): > 100 µM (inactive)
- GI50 (M14): > 100 µM (inactive)
- GI50 (MOLT-4): > 100 µM (inactive)
- GI50 (UACC-257): > 100 µM (inactive)
- GI50 (PC-3): > 100 µM (inactive)
- GI50 (Hs-578T): > 100 µM (inactive)
- GI50 (OVCAR-8): > 100 µM (inactive)
- GI50 (Malme-3M): > 100 µM (inactive)
- GI50 (RPMI-8226): > 100 µM (inactive)
- GI50 (COLO 205): > 100 µM (inactive)
- GI50 (SF-295): > 100 µM (inactive)
- GI50 (HCC 2998): > 100 µM (inactive)
- GI50 (SNB-19): > 100 µM (inactive)
- GI50 (HCT-15): > 100 µM
- GI50 (T47D): > 100 µM (inactive)
- GI50 (MDA-MB-231): > 100 µM (inactive)
- GI50 (NCI-H226): > 100 µM (inactive)
- GI50 (OVCAR-4): > 100 µM (inactive)
- GI50 (CCRF-CEM): > 100 µM (inactive)
- GI50 (A498): > 100 µM (inactive)
- GI50 (TK-10): > 100 µM (inactive)
- GI50 (DU-145): > 100 µM (inactive)
- GI50 (CAKI-1): > 100 µM (inactive)
- GI50 (ACHN): > 100 µM (inactive)
- GI50 (SW-620): > 100 µM (inactive)
- GI50 (NCI-H522): > 100 µM (inactive)
- GI50 (LOX IMVI): > 100 µM (inactive)
- GI50 (SK-MEL-28): > 100 µM (inactive)
- GI50 (SK-OV-3): > 100 µM (inactive)
- GI50 (786-0): > 100 µM (inactive)
- GI50 (K562): > 100 µM (inactive)

Structure (SMILES): CC(C)(C)OC(=O)CCC(NC(=O)OCC1c2ccccc2-c2ccccc21)C(=O)NC(Cc1c[nH]c2ccccc12)C(=O)NC(CCCCNC(=O)OC(C)(C)C)C(=O)N1CCCC1C(=O)NCC(N)=O (centres undefined) (Fmoc-E(OtBu)WK(Boc)PG-NH2; configuration not given here)
- GI50 (U-251): 17.3 µM (inactive) and 17.2 µM (inactive)
- GI50 (SNB-75): 23.3 µM (inactive) and 16 µM (inactive)
- GI50 (SR): 26.5 µM (inactive) and 41.7 µM (inactive)
- GI50 (HT-29): > 100 µM (inactive) and 58.3 µM (inactive)
- GI50 (BT-549): 16 µM (inactive) and 19.5 µM (inactive)
- GI50 (SK-MEL-5): 32 µM (inactive) and 16.2 µM (inactive)
- GI50 (IGROV-1): 31.2 µM (inactive) and 16 µM (inactive)
- GI50 (NCI-H460): 25.9 µM (inactive) and 16.4 µM (inactive)
- GI50 (RXF 393): 22.2 µM (inactive) and 15 µM (inactive)
- GI50 (SK-MEL-2): 18.2 µM (inactive) and 19.7 µM (inactive)
- GI50 (UACC-62): 15 µM (inactive) and 17 µM (inactive)
- GI50 (OVCAR-3): 19.4 µM (inactive) and 16.8 µM (inactive)
- GI50 (HOP-92): 18.5 µM (inactive) and 17.6 µM (inactive)
- GI50 (M14): 22.4 µM (inactive) and 39.7 µM (inactive)
- GI50 (SF-539): 35.6 µM (inactive) and 63.7 µM (inactive)
- GI50 (MOLT-4): 28.2 µM (inactive) and 24.4 µM (inactive)
- GI50 (Hs-578T): 17.3 µM (inactive) and 28.4 µM (inactive)
- GI50 (OVCAR-8): 34.6 µM (inactive) and 17.8 µM (inactive)
- GI50 (Malme-3M): 19.7 µM (inactive) and 31 µM (inactive)
- GI50 (MCF7): 24.9 µM (inactive) and 26.5 µM (inactive)
- GI50 (RPMI-8226): 17.4 µM (inactive) and 34.4 µM (inactive)
- GI50 (SF-295): 34.8 µM (inactive) and 26.2 µM (inactive)
- GI50 (HCC 2998): 66.7 µM (inactive) and 34.8 µM (inactive)
- GI50 (SNB-19): 19.6 µM (inactive) and 26.9 µM (inactive)
- GI50 (T47D): 63.2 µM (inactive) and 52.5 µM (inactive)
- GI50 (MDA-MB-231): 15.6 µM (inactive) and 12.6 µM (inactive)
- GI50 (OVCAR-4): 12.9 µM (inactive) and 17.2 µM (inactive)
- GI50 (MDA-N): 17.8 µM (inactive) and 25.5 µM (inactive)
- GI50 (ACHN): 17.7 µM (inactive) and 16.4 µM (inactive)
- GI50 (NCI-H522): 1.62 µM (inactive)
- GI50 (LOX IMVI): 22.5 µM (inactive) and 12.2 µM (inactive)
- GI50 (SK-MEL-28): 48.1 µM (inactive) and 43.4 µM (inactive)
- GI50 (786-0): 20.7 µM (inactive) and 17.5 µM (inactive)
- GI50 (K562): 30.1 µM (inactive) and 42.5 µM (inactive)
